These results are taken from patent publication US5561131A, “Defaunation method” (Mallinckrodt Veterinary, Inc., priority 1991, dated 1996).

Data set [1] concerns rumen ciliate protozoa. Description: Protozoal reduction in sheep. Format: in vivo. Further details: concentration or dose not given beside the values. As to conditions: one week after dosing, relative to predosing numbers. The procedure:
Defaunation compositions were prepared according to the method of Example 1.
Prior to dosing of the compound, a sample of rumen liquor (200 ml) was withdrawn to establish basal numbers of protozoa.
The sample was collected using a stomach tube, inserted into the rumen via a rumen cannula (fistulated animals) or per esophagus (intact animals). After straining the sample was well mixed using a magnetic stirrer and a 0.5 ml sample was withdrawn and added to 49.5 ml of a crystal violet stain. Protozoa were counted using a microscope and a Hawksley counting chamber.
One week after administering the compound, another rumen liquor sample was collected (as described above) and examined for the presence of protozoa. Where rumen ciliate protozoa were undetectable, a reduction or inhibition value of 100% was recorded. In general, most compounds expressed a strong inhibitory effect on protozoal populations.

In data set [2] the test system is rumen bacteria. The data set can be described thus: Bacterial viability in sheep after administering defaunation compounds. Format: in vivo. As to conditions: gas production one week after dosing vs pre-dosing. The method, then:
In order to establish what effect the compounds had on the viability of rumen bacteria, a sample of rumen liquor was collected prior to dosing of the compound. The sample was withdrawn under vacuum using a pre-warmed tube inserted into the rumen through a rumen cannula. The sample was collected in a pre-warmed (39° C.) flask, gassed with carbon dioxide and covered. Two-pre-warmed 30 ml centrifuge tubes were then filled with well mixed rumen liquor and centrifuged at 2000 rpm for 5 minutes. Half the volume of each tube was then poured into another pre-warmed tube without disturbing the sediment. Three lots of 10 ml of this rumen liquor were then pipetted into 15 ml tubes which contained 10 μL of urea solution (40% w/v and 300 μL of glucose solution (50% w/v). The urea and glucose acted as substrate for the bacteria. The tubes were then gassed with carbon dioxide, stoppered and placed in a water bath at 39° C. After 10 minutes a 5 ml glass syringe was secured into the stoppers (through which a hypodermic needle had been inserted) and the gas collected for five hours and recorded.
This bacterial viability measure was then repeated one week after dosing with each of the compounds referred to in Table 1. Defaunation compositions were prepared according to the method of Example 1. The amount of gas produced was then compared with the pre-dosing level. The criterion for classifying post-dosing bacterial viability is shown below:
Poor--reduction in post-dosing gas production relative to pre-dosing levels.
OK--post-dosing gas production the same as pre-dosing levels.
Good--increase in post-dosing gas production relative to pre-dosing levels.

In data set [3] the test system is rumen ciliate protozoa. Description: In vitro activity of defaunation compounds against rumen ciliate protozoa. The class given is cell-based. As to conditions: 39° C., anaerobic, 3 hours, tested at 50, 150, 250 and 500 ppm. The method, then:
Compounds of Table 1 were tested for their toxicity against rumen ciliate protozoa by firstly isolating protozoa from rumen liquor collected from faunated animals. The rumen liquor was then centrifuged at 500 g for five minutes and the supernatant discarded. The protozoal-rich sediment was then reconstituted in McDougal's artificial saliva. Residual bacteria were suppressed by using a combination of two antibiotics at low concentration. Nitrogen and energy substrate was optimized for the protozoal preparation. At all times the protozoal preparation was maintained at 39° C. and kept anaerobic.
Sixty milligrams of each the compounds of Table 1 were dissolved in 1.2 ml of dimethyl sulphoxide and dispersed in triplicate to achieve a final concentration of 50, 150, 250 and 500 ppm. Ten milliliters of protozoal preparation was then added to each tube. After every second compound, control tubes were included which contained everything except for compound. The tubes, to which a 5 ml glass syringe was attached, were then incubated for 3 hours in a water bath at 39° C. The production of gas causes the syringe plunger to be displaced.
At the end of the incubation period, the volume of gas produced was recorded and the viability of the protozoa assessed visually using a microscope. The toxicity of the compounds to protozoa was assessed from both the reduction in gas produced relative to the control and by direct observation of the protozoa for movement of cilia.

The subject of data set [4] is rumen bacteria. Description: In vitro bacterial gas inhibition. The class given is cell-based. The following applies: at the concentration known to kill protozoa. The procedure: Compounds of Table 1 were also tested for toxicity bacteria. This involved removing protozoa from rumen liquor by centrifugation at 2,000 g for 5 minutes and collecting the bacterial rich supernatant. Nitrogen and energy substrate was added to the bacterial preparation which was then dispensed in triplicate 10 ml volumes over the same range of compound concentrations (50, 150, 250 and 500 ppm.) referred to in Example 2. Control tubes were placed after every second compound to enable the inhibition of gas resulting from the compound to be assessed. […] It can be seen that these compounds are selective in their mode of action, in that they are more toxic to protozoa than bacteria.

Another data set has as its system mice. Description: Mouse safety assessment. The class given is in vivo. As to conditions: oral gavage, 830, 415 and 217 mg/kg, observed for 2 days. The method, then: Compounds of Table 1 chosen for testing in sheep were first tested in mice for signs of toxicity. Because sheep are approximately 5 times more sensitive than mice to compounds dosed orally, the dose rates applied to mice were 5 times greater than the target dose rate of 500 ppm. in rumen liquor (83 mg/kg live weight) used for sheep. Each compound was screened at three different dose levels, high (830 mg/kg), medium (415 mg/kg) and low (217 mg/kg).
252 mg of compound was used for dilution into a high medium and low dose rate. 252 mg of compound was mixed with 3 ml of G1284 solution (4% w/v ethoxylated castor oil and 0.05% w/v simethicone), to form the high dose composition. The medium dose composition was formed by diluting 1.5 ml of the high dose with 1.5 ml of G1284 solution. The low dose composition was formed by diluting 1.5 ml of the medium dose with 1.5 ml of G1284 solution. Before the high dose could be diluted it was first manually ball milled in an effort to produce a fine suspension of the compound.
All mice were weighed before dosing to calculate the appropriate dose rate. The calculation for dose rate was: [formula]
Each mouse was dosed using the Gavage method. With this method the mouse is dosed orally by way of an angled hypodermic needle (18 g) with a smooth spherical end. It is gently placed down the esophagus. All care must be taken not to force the needle and injure the esophagus or dose into the lungs.
Observations were made at 10, 30, 60 and 120 minutes after dosing, then every 1 or 2 hours for the first 6 hours.
Mice were usually observed for 2 days.
Typically, few compounds fell within the poor classification. The majority of compounds tested were either in the fair or good classification.

The nature of data set [5]: Effect of defaunation compounds on feed intake of sheep. As to conditions: after dosing vs pre-dosing intake. The class given is in vivo. The procedure:
Sheep were allowed a minimum of three weeks to adapt to their ration of 900 g of oaten chaff and 100 g of Lucerne chaff. The pre-dosing level of intake for each animal was established from the mean of five days intake immediately prior to dosing. Any effects of administering the compound on feed intake was then determined by measuring the level of feed intake after dosing.
The criteria of classifying the effect on food intake are shown below.
Poor--greater than 50% reduction in feed intake during the first week after dosing.
Fair--greater than 50% reduction in feed intake on the day following dosing but less then 50% reduction one week after dosing.
OK--transient drop in feed intake which is less than 50% on the day after dosing.
Good--No reduction in feed intake following dosing.

Structures are written as SMILES.

Turning to `Clc1nc(Cl)nc(Nc2ccc(I)cc2)n1` [Compound 11], in the data set with rumen ciliate protozoa [1], the “Protozoal Reduction” value is listed as 84%. In addition, the “Bacterial Viability” value in the data set with rumen bacteria [2] is reported as “Okay”. For the same compound, the “Conc Required to Kill all Protozoa” value with rumen ciliate protozoa [3] is given as 250 ppm. The “Bact. Gas Inhibition at the conc. required to kill protozoa” value (shortened to “Bact. Gas Inhibition”) with rumen bacteria [4] amounted to 71. The “Mouse Safety Assessment” value in the data set on mice is recorded as “Fair (>2 mice sick)”. The “Feed Intake” value in data set [5] was “Good”.

For `CSc1cccc(Nc2nc(Cl)nc(Cl)n2)c1` [Compound 15], the “Protozoal Reduction” value in the data set on rumen ciliate protozoa [1] was found to be 100%. Further, the “Bacterial Viability” value in the data set on rumen bacteria [2] is recorded as “Good”. In the data set with rumen ciliate protozoa [3], the “Conc Required to Kill all Protozoa” value is reported as 150 ppm. Moreover, in the data set on rumen bacteria [4], the “Bact. Gas Inhibition” value is given as 52. Besides, the “Mouse Safety Assessment” value in the data set on mice is “Fair (>2 mice sick)”. The “Feed Intake” value in data set [5] was “Good”.

As to `COc1ccc(Nc2nc(Cl)nc(Cl)n2)cc1OC` [Compound 17], the “Protozoal Reduction” value with rumen ciliate protozoa [1] came to 98%. In the data set with rumen bacteria [2], the “Bacterial Viability” value is recorded as “Okay”. Further, in the data set on rumen ciliate protozoa [3], the “Conc Required to Kill all Protozoa” value was found to be 250 ppm. Moreover, in the data set on rumen bacteria [4], the “Bact. Gas Inhibition” value was determined as 43. In the data set with mice, the “Mouse Safety Assessment” value is “Good”. Further, the “Feed Intake” value in data set [5] was “Fair”.

As to `CSc1ccc(Nc2nc(Cl)nc(Cl)n2)cc1` [Compound 18], the “Protozoal Reduction” value in the data set on rumen ciliate protozoa [1] is given as 100%. Further, the “Bacterial Viability” value in the data set with rumen bacteria [2] was “Okay”. Besides, the “Conc Required to Kill all Protozoa” value in the data set on rumen ciliate protozoa [3] was determined as 150 ppm. Besides, the “Bact. Gas Inhibition” value in the data set on rumen bacteria [4] is 53. Besides, in the data set with mice, the “Mouse Safety Assessment” value is “Fair (>2 mice sick)”. In addition, in data set [5], the “Feed Intake” value was “Okay (transient drop, less than 50% at day 2)”.

In the case of `N#Cc1cccc(Nc2nc(Cl)nc(Cl)n2)c1` [Compound 19], in the data set with rumen ciliate protozoa [1], the “Protozoal Reduction” value is listed as 100%. In addition, in the data set on rumen bacteria [2], the “Bacterial Viability” value is “Poor”. Moreover, the “Conc Required to Kill all Protozoa” value in the data set with rumen ciliate protozoa [3] was determined as 250 ppm. For the same compound, in the data set on rumen bacteria [4], the “Bact. Gas Inhibition” value came to 50. Also, the “Mouse Safety Assessment” value in the data set on mice is reported as “Fair (>2 mice sick)”. For the same compound, in data set [5], the “Feed Intake” value is “Good”.

With `CC(C)(C)c1ccc(Nc2nc(Cl)nc(Cl)n2)cc1` [Compound 20], the “Protozoal Reduction” value in the data set with rumen ciliate protozoa [1] stood at 100%. Further, the “Bacterial Viability” value with rumen bacteria [2] was “Okay”. In addition, in the data set with rumen ciliate protozoa [3], the “Conc Required to Kill all Protozoa” value is on record as 150 ppm. The “Bact. Gas Inhibition” value in the data set on rumen bacteria [4] came out at 55. Further, the “Mouse Safety Assessment” value with mice is “Fair (>2 mice sick)”. Further, the “Feed Intake” value in data set [5] is “Good”.

As for `CC(C)c1ccc(Nc2nc(Cl)nc(Cl)n2)cc1` [Compound 21], in the data set with rumen ciliate protozoa [1], the “Protozoal Reduction” value was found to be 100%. For the same compound, the “Bacterial Viability” value with rumen bacteria [2] is “Good”. Besides, the “Conc Required to Kill all Protozoa” value with rumen ciliate protozoa [3] was 150 ppm. In addition, in the data set on rumen bacteria [4], the “Bact. Gas Inhibition” value was determined as 55. Moreover, in the data set with mice, the “Mouse Safety Assessment” value is “Fair (>2 mice sick)”. Besides, in data set [5], the “Feed Intake” value is reported as “Good”.

For the compound `Clc1nc(Cl)nc(Nc2cccc(I)c2)n1` [Compound 22], the “Protozoal Reduction” value with rumen ciliate protozoa [1] was 100%. Further, the “Bacterial Viability” value with rumen bacteria [2] is on record as “Okay”. For the same compound, the “Conc Required to Kill all Protozoa” value with rumen ciliate protozoa [3] is given as 150 ppm. Further, the “Bact. Gas Inhibition” value in the data set on rumen bacteria [4] stood at 75. Further, the “Mouse Safety Assessment” value in the data set on mice is “Fair (>2 mice sick)”. Besides, the “Feed Intake” value in data set [5] is listed as “Good”.

With `COc1cccc(Nc2nc(Cl)nc(Cl)n2)c1` [Compound 23], in the data set with rumen ciliate protozoa [1], the “Protozoal Reduction” value worked out at 79%. In the data set with rumen bacteria [2], the “Bacterial Viability” value is recorded as “Good”. The “Conc Required to Kill all Protozoa” value with rumen ciliate protozoa [3] turned out to be 150 ppm. Further, the “Bact. Gas Inhibition” value in the data set with rumen bacteria [4] is 50. For the same compound, the “Mouse Safety Assessment” value in the data set on mice is recorded as “Fair (>2 mice sick)”. Also, the “Feed Intake” value in data set [5] is “Good”.

With `Clc1nc(Cl)nc(Nc2cc(Cl)c(Cl)c(Cl)c2)n1` [Compound 24], the “Protozoal Reduction” value in the data set with rumen ciliate protozoa [1] is recorded as 100%. Besides, the “Bacterial Viability” value in the data set with rumen bacteria [2] is recorded as “Okay”. The “Conc Required to Kill all Protozoa” value in the data set on rumen ciliate protozoa [3] is given as 150 ppm. The “Bact. Gas Inhibition” value in the data set on rumen bacteria [4] turned out to be 67. The “Mouse Safety Assessment” value in the data set with mice is given as “Good”. In addition, the “Feed Intake” value in data set [5] is “Good”.

As to `CN(c1ccc(Cl)c(Cl)c1)c1nc(Cl)nc(Cl)n1` [Compound 29], the “Protozoal Reduction” value in the data set on rumen ciliate protozoa [1] turned out to be 98%. The “Bacterial Viability” value with rumen bacteria [2] is “Good”. Further, the “Conc Required to Kill all Protozoa” value in the data set on rumen ciliate protozoa [3] is listed as 150 ppm. Moreover, the “Bact. Gas Inhibition” value in the data set on rumen bacteria [4] came out at 41. The “Mouse Safety Assessment” value in the data set with mice is recorded as “Fair (>2 mice sick)”. Further, the “Feed Intake” value in data set [5] is on record as “Good”.
